Assay results as given in patent US20240124503A1, “HETEROAROMATIC PHOSPHONIUM SALTS AND THEIR USE TREATING CANCER” (FLORATEK PHARMA S.A., priority 2021, published 2024).
Where two headings read alike, the source gives them in different places.

How the values were obtained:
Format in all cases: cell-based
LU-01-0604 = assay: Cell viability, lung PDX LU-01-0604
Method: (§1) PDX-derived cell cultures were obtained from tumors explanted from mice and isolated by mechanical and enzymatic dissociation. […] Cells were harvested and seeded in 96-wells plates at a density of 1.25 to 5×10^3 cells/well for cytotoxicity assays. Cells were incubated 48 h at 37° C. prior to addition of test molecules and vehicle (DMSO, 0.1%) at desired final concentrations. Cell viability was assessed before drugs' addition (To) and 5 days after test molecules addition by measuring ATP cell content using CellTiter-Glo® Luminescent Cell Viability Assay (Promega) according to the manufacturer's instructions. Luciferase activity was measured on a luminometer (PerkinElmer® EnVision™). Each concentration of compounds was tested in triplicate.
(§2) Viability was calculated as a percentage of ATP value compared to vehicle treated controls.
(§3) For PDX primary cell cultures, the tumour tissue was washed with PBS containing antibiotic-antimycotic and non-tumour tissue and necrotic tumour tissues were separated. The tumour tissue was transferred to a new dish and cut into 1˜2 mm^3 fragments, resuspended in RPMI-1640 medium and centrifuged at 1,200 rpm for 6 min at room temperature. The pelleted material was resuspended with 15 mL of Tumour Cell Digestion Solution and incubated at 37° C. for 1 hour with agitation. […]

22Rv1 = assay: Cell viability assay, 22Rv1; conditions: prostate carcinoma cell line 22Rv1
Method: (§4) Antitumor activity of the compounds and doxorubicin as a positive control was assessed by using the CellTiter-Blue Cell Viability Assay (Promega, #G8082) or CellTiter-Glow® Luminescent Cell Viability assay (Promega #G7572) according to the manufacturer's instructions. The compounds were tested at 5 or 6 concentrations in half-log increments (highest concentration 30 μM or 100 μM) in duplicate or triplicate well conditions.
(§5) Tumor cells were grown at 37° C. in a humidified atmosphere with 5% CO2 in RPMI 1640 or DMEM medium, supplemented with 10% (v/v) fetal calf serum and 50 μg/ml gentamicin for up to 20 passages, and were passaged once or twice weekly. Cells were harvested using TrypLE or PBS buffer containing 1 mM EDTA, and the percentage of viable cells was determined using a CASY Model TI cell counter (OMNI Life Science). Cells were harvested from exponential phase cultures, counted and plated in 96 well flat-bottom microtiter plates at a cell density depending on the cell line's growth rate (4,000-20,000 cells/well depending on the cell line's growth rate, up to 60,000 for hematological cancer cell lines) in RPMI 1640 or DMEM medium supplemented with 10% (v/v) fetal calf serum and 50 μg/ml gentamicin (140 μl/well). […] Viability of cells was quantified by the CellTiter-Blue® cell viability assay (Promega G8081) or CellTiter-Glow® Luminescent Cell Viability assay (Promega #G7572). […]

PC-07-0045 = assay: Cell viability, pancreatic PDX PC-07-0045
Method: as §1, §2, §3

LU-01-0027 = assay: Cell viability, lung PDX LU-01-0027
Method: as §1, §2, §3

LU-01-0010 = assay: Cell viability, lung PDX LU-01-0010
Method: as §1, §2, §3

CH-17-0091 = assay: Cell viability, bile duct PDX CH-17-0091
Method: as §1, §2, §3

HCT-15 = assay: Cell viability assay, HCT-15; conditions: colon carcinoma cell line HCT-15
Method: as §4, §5

ST-020012 = assay: Cell viability, stomach PDX ST-020012
Method: as §1, §2, §3

HN-13-0020 = assay: Cell viability, head and neck PDX HN-13-0020
Method: as §1, §2
For PDX primary cell cultures, the tumour tissue was washed with PBS containing antibiotic-antimycotic and non-tumour tissue and necrotic tumour tissues were separated. The tumour tissue was transferred to a new dish and cut into 1˜2 mm^3 fragments, resuspended in RPMI-1640 medium and centrifuged at 1,200 rpm for 6 min at room temperature. The pelleted material was resuspended with 15 mL of Tumour Cell Digestion Solution and incubated at 37° C. for 1 hour with agitation. Following further addition of media, centrifugation and passage through a 70 μm cell strainer, the homogenous cell mixture was layered onto 15 mL of Ficoll-Paque PLUS in a 50 mL conical tube and centrifuged for 15 min at 1,600 rpm. The interface cells were collected, washed with media, separated by centrifugation at 1,200 rpm. The cell pellet was resuspended in serum free media supplemented with growth factors. 10,000 cells/wells were plated in a 96 well plate and incubated at 37° C., 5% CO2, 95% air and 100% relative humidity overnight. The cytotoxicity assay was conducted as above.
Sigmoidal concentration-response curves were fitted to the data points (test-versus-control, T/C values) obtained for each tumor model using GraphPad prism 5.02 software.

LU-01-0004 = assay: Cell viability, lung PDX LU-01-0004
Method: as §1, §2, §3

ST-02-0322 = assay: Cell viability, stomach PDX ST-02-0322
Method: as §1, §2, §3

ST-02-0007 = assay: Cell viability, stomach PDX ST-02-0007
Method: as §1, §2, §3

HT-29 = assay: Cell viability assay, HT-29; conditions: colon carcinoma cell line HT-29
Method: as §4, §5

HL-60 = assay: Cell viability assay, HL-60
Method: as §4
Tumor cells were grown at 37° C. in a humidified atmosphere with 5% CO2 in RPMI 1640 or DMEM medium, supplemented with 10% (v/v) fetal calf serum and 50 μg/ml gentamicin for up to 20 passages, and were passaged once or twice weekly. Cells were harvested using TrypLE or PBS buffer containing 1 mM EDTA, and the percentage of viable cells was determined using a CASY Model TI cell counter (OMNI Life Science). Cells were harvested from exponential phase cultures, counted and plated in 96 well flat-bottom microtiter plates at a cell density depending on the cell line's growth rate (4,000-20,000 cells/well depending on the cell line's growth rate, up to 60,000 for hematological cancer cell lines) in RPMI 1640 or DMEM medium supplemented with 10% (v/v) fetal calf serum and 50 μg/ml gentamicin (140 μl/well). Cultures were incubated at 37° C. and 5% CO2 in a humidified atmosphere. After 24 h, 10 μl of test compounds or control medium were added and left on the cells for another 72 h. Compounds were serially diluted in DMSO, transferred in cell culture medium, and added to the assay plates. The DMSO concentration was kept constant at <0.3% v/v across the assay plate. Viability of cells was quantified by the CellTiter-Blue® cell viability assay (Promega G8081) or CellTiter-Glow® Luminescent Cell Viability assay (Promega #G7572). Fluorescence (FU) was measured by using the EnSpire® multimode plate reader (Perkin Elmer) (excitation λ=570 nm, emission λ=600 nm) Luminescence was measured with a microplate luminometer (Promega or PerkinElmer). […]

KM-12 = assay: Cell viability assay, KM-12; conditions: colon carcinoma cell line KM-12
Method: as §4, §5

CO-04-0722 = assay: Cell viability, colon PDX CO-04-0722
Method: as §1, §2, §3

BR-05-0399 = assay: Cell viability, breast PDX BR-05-0399
Method: as §1, §2, §3

OVXF 899 = assay: Cell viability assay, OVXF 899; conditions: ovarian carcinoma OVXF 899
Method: as §4, §5

ES-06-0002 = assay: Cell viability, esophagus PDX ES-06-0002
Method: as §1, §2, §3

LoVo = assay: Cell viability assay, LoVo; conditions: colon carcinoma cell line LoVo
Method: as §4, §5

[1] = head and neck PDX HN-13-0020, read-out: IC50

Compound | IC50 (LU-01-0604) [µM] | IC50 (PC-07-0045) [µM] | IC50 (LU-01-0027) [µM] | IC50 (LU-01-0010) [µM] | IC50 (CH-17-0091) [µM] | IC50 (ST-020012) [µM] | IC50 (HN-13-0020; [1]) [µM] | IC50 (LU-01-0004) [µM] | IC50 (ST-02-0322) [µM] | IC50 (ST-02-0007) [µM] | IC50 (CO-04-0722) [µM] | IC50 (BR-05-0399) [µM] | IC50 (OVXF 899) [µM] | IC50 (ES-06-0002) [µM] | also measured
COc1c(O)ccc2c(=O)c(O)c(-c3ccc(CCCC[P+](c4ccccc4)(c4ccccc4)c4ccccc4)cc3)oc12 [SND190, (4-(4-(3,7-Dihydroxy-8-methoxy-4-oxo-4H1-chromen-2-yl)phenyl)butyl)triphenylphosphonium bromide] | 2 | 3.4 | 4 | 1.1 | 4 | 4.5 | 2.26 | 5.4 | 6.3 | 5.7 | 4.4 | 5.4 | 8.76 | 4.9 | IC50 (22Rv1; Homo sapiens): 0.79 µM; IC50 (HCT-15; Homo sapiens): 15 µM; IC50 (HN-13-0020; summary of Table 10, read-out: IC50, head and neck PDX growth): < 5 µM; IC50 (HT-29; Homo sapiens): 5.78 µM; IC50 (HL-60; Homo sapiens, HL-60, summary of Table 12, read-out: IC50, leukaemia cell growth): < 1 µM; IC50 (HL-60; Homo sapiens, leukaemia cell line HL-60, read-out: IC50): 0.3 µM; IC50 (KM-12; Homo sapiens, KM12): 1.7 µM; IC50 (LoVo; Homo sapiens): 2.49 µM
O=c1cc(-c2ccc(CCC[P+](c3ccccc3)(c3ccccc3)c3ccccc3)cc2)oc2c(O)c(O)ccc12 [SND200, (3-(4-(7,8-Dihydroxy-4-oxo-4H1-chromen-2-yl)phenyl)propyl)triphenylphosphonium bromide] | 7.8 | 2.3 | 1.8 | 10 | 9.5 | 8.8 | 4.1 | 9.8 | 8.5 | 9.4 | 9.8 | 14.9 | 6.37 | 11.6 | IC50 (22Rv1): 0.42 µM; IC50 (HCT-15): 7.49 µM; IC50 (HT-29): 3.31 µM; IC50 (HL-60; leukaemia cell line HL-60, read-out: IC50): 0.3 µM; IC50 (KM-12): 0.44 µM; IC50 (LoVo): 0.64 µM
